According to PubChem BioAssay AID1259407 (Chemical Carcinogenesis Research Information System (CCRIS), 2018):
Activity calls are given as the source filed them. How the calls were made is not given here.

Test system: CCRIS mutagenicity, Ames/micronucleus/aberration tests
Test: CCRIS mutagenicity studies
[1] = Test System: AMES SALMONELLA TYPHIMURIUM, Strain/Indicator: TA98, Metabolic Activation: NONE, Method: PREINCUBATION
[2] = Test System: AMES SALMONELLA TYPHIMURIUM, Strain/Indicator: TA100, Metabolic Activation: NONE, Method: PREINCUBATION
[3] = Test System: AMES SALMONELLA TYPHIMURIUM, Strain/Indicator: TA1535, Metabolic Activation: NONE, Method: PREINCUBATION

`O[C@@H]1C=C2c3ccccc3-c3cccc(c32)[C@H]1O` was tested, and the mutagenic call (Test System: AMES SALMONELLA TYPHIMURIUM, Strain/Indicator: TM677, Metabolic Activation: NONE, Method: PREINCUBATION) was “active; positive” and the mutagenic call (Test System: AMES SALMONELLA TYPHIMURIUM, Strain/Indicator: TM677, Metabolic Activation: RAT, LIVER, POSTMITOCHONDRIAL SUPERNATANT, AROCLOR 1254, Method: PREINCUBATION) was “active; positive”.
With `CCCCNN` the mutagenic call (Test System: AMES SALMONELLA TYPHIMURIUM, Strain/Indicator: TA100, Metabolic Activation: NONE, Method: PREINCUBATION (11 HR GROWTH PERIOD FOR BACTERIA)) was “active; positive”, the mutagenic call (Test System: AMES SALMONELLA TYPHIMURIUM, Strain/Indicator: TA100, Metabolic Activation: RAT, LIVER, S-9, PCB, Method: PREINCUBATION (11 HR GROWTH PERIOD FOR BACTERIA)) was “inactive; negative” and the mutagenic call (Test System: AMES SALMONELLA TYPHIMURIUM, Strain/Indicator: TA102, Metabolic Activation: NONE, Method: PREINCUBATION (5 OR 7 HR GROWTH PERIOD FOR BACTERIA)) was “active; positive”. For the same molecule, the mutagenic call (Test System: AMES SALMONELLA TYPHIMURIUM, Strain/Indicator: TA102, Metabolic Activation: RAT, LIVER, S-9, PCB, Method: PREINCUBATION (5 HR GROWTH PERIOD FOR BACTERIA)) was “inactive; negative” and the mutagenic call (Test System: AMES SALMONELLA TYPHIMURIUM, Strain/Indicator: TA102, Metabolic Activation: RAT, LIVER, S-9, PCB, Method: PREINCUBATION (7 HR GROWTH PERIOD FOR BACTERIA)) was “active; positive”.
In the case of `C=C(C)C(=O)OCCCCCCCC(C)C`, the mutagenic call (Test System: AMES SALMONELLA TYPHIMURIUM, Strain/Indicator: TA97, Metabolic Activation: HAMSTER, LIVER, S-9, AROCLOR 1254 (10 OR 30%), Method: PREINCUBATION) is reported as “inactive; negative”, the mutagenic call (Test System: AMES SALMONELLA TYPHIMURIUM, Strain/Indicator: TA97, Metabolic Activation: NONE, Method: PREINCUBATION) is reported as “inactive; negative” and the mutagenic call (Test System: AMES SALMONELLA TYPHIMURIUM, Strain/Indicator: TA97, Metabolic Activation: RAT, LIVER, S-9, AROCLOR 1254 (10 OR 30%), Method: PREINCUBATION) is reported as “inactive; negative”. The mutagenic call (Test System: AMES SALMONELLA TYPHIMURIUM, Strain/Indicator: TA98, Metabolic Activation: HAMSTER, LIVER, S-9, AROCLOR 1254 (10 OR 30%), Method: PREINCUBATION) was “inactive; negative”, the mutagenic call [1] was “inactive; negative” and the mutagenic call (Test System: AMES SALMONELLA TYPHIMURIUM, Strain/Indicator: TA98, Metabolic Activation: RAT, LIVER, S-9, AROCLOR 1254 (10 OR 30%), Method: PREINCUBATION) was “inactive; negative”. For the same molecule, the mutagenic call (Test System: AMES SALMONELLA TYPHIMURIUM, Strain/Indicator: TA100, Metabolic Activation: HAMSTER, LIVER, S-9, AROCLOR 1254 (10 OR 30%), Method: PREINCUBATION) was “inactive; negative”, the mutagenic call [2] was “inactive; negative” and the mutagenic call (Test System: AMES SALMONELLA TYPHIMURIUM, Strain/Indicator: TA100, Metabolic Activation: RAT, LIVER, S-9, AROCLOR 1254 (10 OR 30%), Method: PREINCUBATION) was “inactive; negative”. For the same molecule, the mutagenic call (Test System: AMES SALMONELLA TYPHIMURIUM, Strain/Indicator: TA1535, Metabolic Activation: HAMSTER, LIVER, S-9, AROCLOR 1254 (10 OR 30%), Method: PREINCUBATION) was “inactive; negative”, the mutagenic call [3] was “inactive; negative” and the mutagenic call (Test System: AMES SALMONELLA TYPHIMURIUM, Strain/Indicator: TA1535, Metabolic Activation: RAT, LIVER, S-9, AROCLOR 1254 (10 OR 30%), Method: PREINCUBATION) was “inactive; negative”.
For `N=C1C=CC2=CC(S(=O)(=O)O)=CC(=O)C2=C1NNc1ccc(-c2ccc(N=Nc3cc(S(=O)(=O)O)c4ccccc4c3N)cc2)cc1`, the mutagenic call (Test System: AMES SALMONELLA TYPHIMURIUM, Strain/Indicator: TA98, Metabolic Activation: HAMSTER, LIVER, S-9, Method: PREINCUBATION (PRIVAL METHOD)) was “active; positive”.
`CNC(=O)C[C@@H](N)C(=O)N[C@@H](C(=O)N[C@@H]1C(=O)N2[C@@H]1SC(C)(C)[C@@H]2C(=O)O)c1ccc(O)cc1` was tested, and the mutagenic call [1] was “inactive; negative”, the mutagenic call (Test System: AMES SALMONELLA TYPHIMURIUM, Strain/Indicator: TA98, Metabolic Activation: RAT, LIVER, S-9, PHENOBARBITAL AND BENZOFLAVONE, Method: PREINCUBATION) was “inactive; negative” and the mutagenic call [2] was “inactive; negative”. For the same molecule, the mutagenic call (Test System: AMES SALMONELLA TYPHIMURIUM, Strain/Indicator: TA100, Metabolic Activation: RAT, LIVER, S-9, PHENOBARBITAL AND BENZOFLAVONE, Method: PREINCUBATION) was “inactive; negative”, the mutagenic call [3] was “inactive; negative” and the mutagenic call (Test System: AMES SALMONELLA TYPHIMURIUM, Strain/Indicator: TA1535, Metabolic Activation: RAT, LIVER, S-9, PHENOBARBITAL AND 5,6 BENZOFLAVONE, Method: PREINCUBATION) was “inactive; negative”. For the same molecule, the mutagenic call (Test System: AMES SALMONELLA TYPHIMURIUM, Strain/Indicator: TA1537, Metabolic Activation: NONE, Method: PREINCUBATION) was “inactive; negative”, the mutagenic call (Test System: AMES SALMONELLA TYPHIMURIUM, Strain/Indicator: TA1537, Metabolic Activation: RAT, LIVER, S-9, PHENOBARBITAL AND 5,6 BENZOFLAVONE, Method: PREINCUBATION) was “inactive; negative” and the mutagenic call (Test System: AMES SALMONELLA TYPHIMURIUM, Strain/Indicator: TA1538, Metabolic Activation: NONE, Method: PREINCUBATION) was “inactive; negative”. The mutagenic call (Test System: AMES SALMONELLA TYPHIMURIUM, Strain/Indicator: TA1538, Metabolic Activation: RAT, LIVER, S-9, PHENOBARBITAL AND 5,6 BENZOFLAVONE, Method: PREINCUBATION) was “inactive; negative”, the mutagenic call (Test System: E. COLI, Strain/Indicator: WP2 UVRA, Metabolic Activation: NONE, Method: PREINCUBATION) was “inactive; negative” and the mutagenic call (Test System: E. COLI, Strain/Indicator: WP2 UVRA, Metabolic Activation: RAT, LIVER, S-9, PHENOBARBITAL AND 5,6 BENZOFLAVONE, Method: PREINCUBATION) was “inactive; negative”.
`Cc1cc(N)c(C)c([N+](=O)[O-])c1N` was tested, and the mutagenic call (Test System: AMES SALMONELLA TYPHIMURIUM, Strain/Indicator: TA98, Metabolic Activation: NONE, Method: STANDARD PLATE) was “inactive; negative”, the mutagenic call (Test System: AMES SALMONELLA TYPHIMURIUM, Strain/Indicator: TA98, Metabolic Activation: RAT, LIVER, S-9, AROCLOR 1254, Method: STANDARD PLATE) was “active; positive” and the mutagenic call (Test System: AMES SALMONELLA TYPHIMURIUM, Strain/Indicator: TA100, Metabolic Activation: NONE, Method: STANDARD PLATE) was “inactive; negative”. The mutagenic call (Test System: AMES SALMONELLA TYPHIMURIUM, Strain/Indicator: TA100, Metabolic Activation: RAT, LIVER, S-9, AROCLOR 1254, Method: STANDARD PLATE) was “inactive; negative”, the mutagenic call (Test System: AMES SALMONELLA TYPHIMURIUM, Strain/Indicator: TA1535, Metabolic Activation: NONE, Method: STANDARD PLATE) was “inactive; negative” and the mutagenic call (Test System: AMES SALMONELLA TYPHIMURIUM, Strain/Indicator: TA1535, Metabolic Activation: RAT, LIVER, S-9, AROCLOR 1254, Method: STANDARD PLATE) was “inactive; negative”. The mutagenic call (Test System: AMES SALMONELLA TYPHIMURIUM, Strain/Indicator: TA1537, Metabolic Activation: NONE, Method: STANDARD PLATE) was “inactive; negative”, the mutagenic call (Test System: AMES SALMONELLA TYPHIMURIUM, Strain/Indicator: TA1537, Metabolic Activation: RAT, LIVER, S-9, AROCLOR 1254, Method: STANDARD PLATE) was “inactive; negative” and the mutagenic call (Test System: AMES SALMONELLA TYPHIMURIUM, Strain/Indicator: TA1538, Metabolic Activation: NONE, Method: STANDARD PLATE) was “inactive; negative”. The mutagenic call (Test System: AMES SALMONELLA TYPHIMURIUM, Strain/Indicator: TA1538, Metabolic Activation: RAT, LIVER, S-9, AROCLOR 1254, Method: STANDARD PLATE) was “active; positive”.
For `COCC1CO1` (stereo not drawn), the mutagenic call (Test System: AMES SALMONELLA TYPHIMURIUM, Strain/Indicator: TA100, Metabolic Activation: HAMSTER, LIVER, S-9, AROCLOR 1254 (10%), Method: PREINCUBATION) was “active; positive”, the mutagenic call [2] was “active; positive” and the mutagenic call (Test System: AMES SALMONELLA TYPHIMURIUM, Strain/Indicator: TA100, Metabolic Activation: RAT, LIVER, S-9, AROCLOR 1254 (10%), Method: PREINCUBATION) was “active; positive”. For the same molecule, the mutagenic call (Test System: AMES SALMONELLA TYPHIMURIUM, Strain/Indicator: TA1535, Metabolic Activation: HAMSTER, LIVER, S-9, AROCLOR 1254 (10%), Method: PREINCUBATION) was “active; positive”, the mutagenic call [3] was “active; positive” and the mutagenic call (Test System: AMES SALMONELLA TYPHIMURIUM, Strain/Indicator: TA1535, Metabolic Activation: RAT, LIVER, S-9, AROCLOR 1254 (10%), Method: PREINCUBATION) was “active; positive”.
In the case of `Cc1cnc2cc3nc(N)n(C)c3c(C)c2n1`, the mutagenic call (Test System: AMES SALMONELLA TYPHIMURIUM, Strain/Indicator: TA98, Metabolic Activation: RAT, LIVER, S-9, PCB, Method: PREINCUBATION) is reported as “active; positive”, the mutagenic call (Test System: AMES SALMONELLA TYPHIMURIUM, Strain/Indicator: TA98, Metabolic Activation: S-9) is reported as “active; positive” and the mutagenic call (Test System: AMES SALMONELLA TYPHIMURIUM, Strain/Indicator: TA98, Metabolic Activation: S-9, Method: PREINCUBATION) is reported as “active; positive”. For the same molecule, the mutagenic call (Test System: AMES SALMONELLA TYPHIMURIUM, Strain/Indicator: YG1024, Metabolic Activation: RAT, LIVER, S-9, PCB, Method: PREINCUBATION) was “active; positive” and the mutagenic call (Test System: AMES SALMONELLA TYPHIMURIUM, Strain/Indicator: YG1024, Metabolic Activation: S-9) was “active; positive”.
